According to patent US10099993B2, “Metabotropic glutamate receptor positive allosteric modulators (PAMS) and uses thereof” (Sanford-Burnham Medical Research Institute, priority 2014, dated 2018):
Each block holds one molecule with its values, some of them ahead of it.

Assays:
[1] = system: cocaine-maintained responding in rats; conditions: previously shown (Jin, X. et al. 2010); cited from earlier work
[2] = system: food-maintained responding in rats; conditions: previously shown (Jin, X. et al. 2010); cited from earlier work
mGlu3 [3] = biological target: T1, mGlu3 (Rattus norvegicus (Rat), UniProt P31422); experiment: TREx293 mGlu3 Gα15 calcium assay; format: cell-based; conditions: presence of an EC20 of glutamate, 20 ng/mL Tet for 20 h
Protocol: In order to generate a tetracycline (Tet)-inducible rat mGlu3 stable cell line to be used for a calcium mobilization assay, TREx293 cells (Invitrogen) were transfected with mouse Gα15-pCMV6 plasmid (Origene) using Fugene6 (Promega). The cells were selected for Gα15 expression with 1 mg/mL G418 in the presence of 10 μg/ml blasticidin to maintain Tet Repressor expression. Two weeks after the selection, polyclonal TREx293 Gα15 cells were obtained. The entire coding sequence of rat mGlu3 was amplified by polymerase chain reaction (PCR) and cloned into the Tet-inducible expression plasmid pcDNA5/TO (Invitrogen). Rat mGlu3-pcDNA5/TO was transfected into TREx293 Gα15 cells and selected for mGlu3 expression with 200 μg/ml hygromycin in the presence of G418 and blasticidin.
For mGlu3 the TREx tetracycline-inducible system (Invitrogen) was utilized. […] In the absence of Tet, no measurable expression of mGlu3 is detected either by Western blot (FIG. 3A) or by functional response to calcium mobilization (FIG. 3B). […] Data were analyzed using nonlinear regression. Data were obtained from three separate experiments performed in triplicate, normalized to the response to 100 μM glutamate in each experiment, and are expressed as the mean±SEM.

mGlu6 = mGlu6 (Rattus norvegicus (Rat), UniProt P35349); experiment: mGlu6 GIRK thallium flux assay; format: cell-based; conditions: full agonist concentration-response ± 10 μM compound
mGlu6, sequence (P35349 24-871): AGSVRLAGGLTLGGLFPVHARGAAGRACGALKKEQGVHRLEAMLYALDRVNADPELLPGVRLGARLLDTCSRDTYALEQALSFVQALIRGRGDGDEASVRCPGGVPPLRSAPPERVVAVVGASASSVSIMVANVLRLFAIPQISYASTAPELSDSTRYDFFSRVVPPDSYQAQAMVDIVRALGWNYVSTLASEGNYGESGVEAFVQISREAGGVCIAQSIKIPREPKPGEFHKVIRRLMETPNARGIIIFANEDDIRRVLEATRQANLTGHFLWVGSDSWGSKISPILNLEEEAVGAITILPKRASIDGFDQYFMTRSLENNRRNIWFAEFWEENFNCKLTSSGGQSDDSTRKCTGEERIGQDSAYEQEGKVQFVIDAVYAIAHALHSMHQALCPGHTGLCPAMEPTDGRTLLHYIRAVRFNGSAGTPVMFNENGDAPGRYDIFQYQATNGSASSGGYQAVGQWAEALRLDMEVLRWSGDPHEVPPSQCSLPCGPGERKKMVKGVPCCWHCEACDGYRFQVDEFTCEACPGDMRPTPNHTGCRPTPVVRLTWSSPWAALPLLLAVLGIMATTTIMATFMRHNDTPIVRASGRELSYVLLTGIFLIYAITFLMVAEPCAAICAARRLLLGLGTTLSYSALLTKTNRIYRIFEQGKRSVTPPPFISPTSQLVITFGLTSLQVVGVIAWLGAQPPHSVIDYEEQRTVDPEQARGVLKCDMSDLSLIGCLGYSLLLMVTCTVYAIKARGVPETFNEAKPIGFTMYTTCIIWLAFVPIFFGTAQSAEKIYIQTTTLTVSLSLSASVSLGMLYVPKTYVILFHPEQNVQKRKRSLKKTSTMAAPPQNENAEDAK

mGlu7 = mGlu7 (Rattus norvegicus (Rat), UniProt P35400); experiment: mGlu7 GIRK thallium flux assay; format: cell-based; conditions: full L-AP4 concentration-response ± 10 μM compound
mGlu7, sequence (P35400 35-915): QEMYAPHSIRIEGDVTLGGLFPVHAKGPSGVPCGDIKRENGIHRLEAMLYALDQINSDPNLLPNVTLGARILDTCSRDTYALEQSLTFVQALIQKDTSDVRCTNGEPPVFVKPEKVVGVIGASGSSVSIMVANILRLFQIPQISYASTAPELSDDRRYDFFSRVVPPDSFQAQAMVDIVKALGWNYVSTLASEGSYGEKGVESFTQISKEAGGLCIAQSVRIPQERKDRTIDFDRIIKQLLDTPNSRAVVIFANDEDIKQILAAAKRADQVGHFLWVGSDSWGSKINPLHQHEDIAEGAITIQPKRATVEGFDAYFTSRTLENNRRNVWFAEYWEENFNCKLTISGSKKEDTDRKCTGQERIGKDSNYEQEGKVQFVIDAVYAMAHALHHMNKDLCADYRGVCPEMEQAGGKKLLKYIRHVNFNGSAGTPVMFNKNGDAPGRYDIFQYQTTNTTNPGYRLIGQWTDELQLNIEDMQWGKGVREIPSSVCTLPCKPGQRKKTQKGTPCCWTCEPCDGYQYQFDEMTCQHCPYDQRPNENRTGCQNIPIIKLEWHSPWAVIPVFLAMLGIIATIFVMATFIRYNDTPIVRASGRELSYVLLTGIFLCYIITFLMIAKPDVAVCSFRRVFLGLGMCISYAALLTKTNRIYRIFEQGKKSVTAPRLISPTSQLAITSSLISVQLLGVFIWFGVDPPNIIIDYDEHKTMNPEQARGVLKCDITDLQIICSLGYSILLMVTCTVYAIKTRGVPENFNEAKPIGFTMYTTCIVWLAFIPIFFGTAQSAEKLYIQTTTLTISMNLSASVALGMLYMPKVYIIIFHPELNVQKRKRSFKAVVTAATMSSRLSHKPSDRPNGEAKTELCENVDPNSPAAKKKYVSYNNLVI

[4] = In vivo PK in rats, p.o. administration; set-up: species or system rat; conditions: 20 mg/kg; for Plasma: harvested at or near the Tmax; for Kp / Tmax / Cmax: rat, po; for Kp: brain and plasma, read-out: Brain:Plasma ratio; for Tmax / Cmax: plasma
mGlu3 [5] = biological target: T1, mGlu3; experiment: mGlu3 GIRK thallium flux assay; conditions: for General activity at mGlu3: full agonist concentration-response ± 10 μM compound; for Emax: read-out: mGlu3 PAM Max; for EC50: read-out: mGlu3 PAM EC50, test compound, then EC20 glutamate […] later in the presence of thallium; for EC50 / mGlu3 PAM Max: PAM mode, mean ± SEM; for mGlu3 PAM Max: % Glutamate Max;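 on all read-outs here: kinetic fluorescence slope read shortly after thallium plus agonist addition, scaled between vehicle and maximal agonist control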
mGlu1 = mGlu1 (Rattus norvegicus (Rat), UniProt P23385); experiment: mGlu1 calcium assay; format: cell-based; conditions: full agonist concentration-response ± 10 μM compound
mGlu1, sequence (P23385 19-1199): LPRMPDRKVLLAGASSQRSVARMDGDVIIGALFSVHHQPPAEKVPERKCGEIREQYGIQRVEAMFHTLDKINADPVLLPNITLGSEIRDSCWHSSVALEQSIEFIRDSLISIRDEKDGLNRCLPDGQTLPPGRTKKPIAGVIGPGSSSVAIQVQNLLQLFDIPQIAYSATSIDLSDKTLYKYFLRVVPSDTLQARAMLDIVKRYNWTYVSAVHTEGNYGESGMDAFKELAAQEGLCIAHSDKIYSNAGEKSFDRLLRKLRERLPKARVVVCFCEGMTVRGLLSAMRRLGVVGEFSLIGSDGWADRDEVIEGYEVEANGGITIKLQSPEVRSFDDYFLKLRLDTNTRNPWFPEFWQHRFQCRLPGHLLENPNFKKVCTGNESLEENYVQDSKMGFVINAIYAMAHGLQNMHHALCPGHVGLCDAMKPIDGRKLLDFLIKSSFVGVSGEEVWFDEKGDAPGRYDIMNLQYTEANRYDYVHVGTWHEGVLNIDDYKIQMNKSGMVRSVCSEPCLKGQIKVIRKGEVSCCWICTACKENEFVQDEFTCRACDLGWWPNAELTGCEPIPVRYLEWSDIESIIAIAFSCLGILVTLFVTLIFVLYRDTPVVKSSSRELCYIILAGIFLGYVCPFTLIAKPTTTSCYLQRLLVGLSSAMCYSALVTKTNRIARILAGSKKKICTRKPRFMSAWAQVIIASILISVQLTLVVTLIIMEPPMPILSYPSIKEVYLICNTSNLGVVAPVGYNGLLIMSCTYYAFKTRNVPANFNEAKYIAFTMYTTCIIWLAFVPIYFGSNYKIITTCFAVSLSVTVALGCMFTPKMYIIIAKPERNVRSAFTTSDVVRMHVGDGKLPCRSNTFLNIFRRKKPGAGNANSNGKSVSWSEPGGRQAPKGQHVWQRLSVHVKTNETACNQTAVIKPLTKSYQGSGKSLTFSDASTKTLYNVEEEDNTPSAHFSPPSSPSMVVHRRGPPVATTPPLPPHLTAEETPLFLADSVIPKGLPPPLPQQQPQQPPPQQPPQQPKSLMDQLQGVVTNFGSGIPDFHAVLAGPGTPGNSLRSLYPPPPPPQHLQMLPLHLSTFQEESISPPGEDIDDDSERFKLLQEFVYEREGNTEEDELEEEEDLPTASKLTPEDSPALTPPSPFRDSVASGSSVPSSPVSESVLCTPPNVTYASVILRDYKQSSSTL

[6] = In vivo PK in rats, i.v. administration; set-up: species or system rat; conditions: 2 mg/kg; for Cmax / Vd: rat, iv, plasma; for Vd: read-out: Vdss
mGlu8 = mGlu8 (Rattus norvegicus (Rat), UniProt P70579); experiment: mGlu8 GIRK thallium flux assay; format: cell-based; conditions: full agonist concentration-response ± 10 μM compound
mGlu8, sequence (P70579 34-908): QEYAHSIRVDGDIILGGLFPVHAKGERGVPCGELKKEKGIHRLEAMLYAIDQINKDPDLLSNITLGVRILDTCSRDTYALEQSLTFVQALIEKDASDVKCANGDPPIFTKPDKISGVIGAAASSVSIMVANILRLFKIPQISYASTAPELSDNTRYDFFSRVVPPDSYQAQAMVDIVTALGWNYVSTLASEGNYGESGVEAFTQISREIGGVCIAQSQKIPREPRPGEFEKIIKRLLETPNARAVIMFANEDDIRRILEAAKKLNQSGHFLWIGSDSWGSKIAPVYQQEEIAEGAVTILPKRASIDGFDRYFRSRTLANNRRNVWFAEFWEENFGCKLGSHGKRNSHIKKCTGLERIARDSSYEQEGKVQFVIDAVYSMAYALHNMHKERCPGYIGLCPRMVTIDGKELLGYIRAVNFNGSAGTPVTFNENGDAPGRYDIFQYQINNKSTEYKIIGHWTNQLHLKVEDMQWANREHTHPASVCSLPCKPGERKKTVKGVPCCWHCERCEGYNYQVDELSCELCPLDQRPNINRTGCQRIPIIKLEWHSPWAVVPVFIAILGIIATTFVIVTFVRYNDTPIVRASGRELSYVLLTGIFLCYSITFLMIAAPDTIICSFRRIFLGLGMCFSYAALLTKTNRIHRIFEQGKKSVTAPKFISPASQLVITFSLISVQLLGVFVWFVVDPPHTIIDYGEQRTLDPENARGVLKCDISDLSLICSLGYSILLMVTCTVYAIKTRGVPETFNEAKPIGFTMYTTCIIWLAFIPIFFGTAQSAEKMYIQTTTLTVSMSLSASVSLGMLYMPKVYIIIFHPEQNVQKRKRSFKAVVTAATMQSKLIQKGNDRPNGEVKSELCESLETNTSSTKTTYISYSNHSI

mGlu4 = mGlu4 (Rattus norvegicus (Rat), UniProt P31423); experiment: mGlu4 GIRK thallium flux assay; format: cell-based; conditions: full agonist concentration-response ± 10 μM compound
mGlu4, sequence (P31423 33-912): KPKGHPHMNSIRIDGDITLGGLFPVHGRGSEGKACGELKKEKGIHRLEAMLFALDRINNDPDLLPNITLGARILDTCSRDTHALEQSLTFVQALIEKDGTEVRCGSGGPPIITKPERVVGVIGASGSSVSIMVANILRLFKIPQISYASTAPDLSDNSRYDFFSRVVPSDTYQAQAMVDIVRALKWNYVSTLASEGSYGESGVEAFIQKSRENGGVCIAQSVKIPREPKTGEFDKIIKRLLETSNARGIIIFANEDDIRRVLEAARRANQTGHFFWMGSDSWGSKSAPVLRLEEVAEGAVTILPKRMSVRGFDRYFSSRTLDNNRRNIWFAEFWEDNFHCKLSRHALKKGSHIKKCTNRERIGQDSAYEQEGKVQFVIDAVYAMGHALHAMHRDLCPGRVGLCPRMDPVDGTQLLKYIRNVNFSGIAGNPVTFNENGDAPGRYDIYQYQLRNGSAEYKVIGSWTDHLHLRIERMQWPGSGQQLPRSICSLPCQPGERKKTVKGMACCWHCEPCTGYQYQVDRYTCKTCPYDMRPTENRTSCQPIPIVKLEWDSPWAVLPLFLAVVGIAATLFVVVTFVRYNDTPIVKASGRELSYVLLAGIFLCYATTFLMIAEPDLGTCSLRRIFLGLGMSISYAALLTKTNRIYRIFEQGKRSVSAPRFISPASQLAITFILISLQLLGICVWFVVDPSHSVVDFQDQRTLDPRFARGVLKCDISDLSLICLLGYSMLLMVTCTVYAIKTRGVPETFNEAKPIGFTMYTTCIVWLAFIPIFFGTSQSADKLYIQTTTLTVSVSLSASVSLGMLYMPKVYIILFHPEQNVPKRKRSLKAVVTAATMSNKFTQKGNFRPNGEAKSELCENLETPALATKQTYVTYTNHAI

mGlu5 = mGlu5 (Rattus norvegicus (Rat), UniProt P31424); experiment: mGlu5 calcium assay; format: cell-based; conditions: full agonist concentration-response ± 10 μM compound
mGlu2 = mGlu2 (Rattus norvegicus (Rat), UniProt P31421); experiment: mGlu2 GIRK thallium flux assay; conditions: for General activity at mGlu2: full agonist concentration-response ± 10 μM compound; for Emax: read-out: mGlu2 PAM Max; for EC50: read-out: mGlu2 PAM EC50, test compound, then EC20 glutamate […] later in the presence of thallium; for EC50 / mGlu2 PAM Max: PAM mode, mean ± SEM, at least three experiments; for mGlu2 PAM Max: % Glutamate Max;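 on all read-outs here: Cell-based assay, rate of fluorescence rise right after thallium plus agonist addition read on a kinetic imaging plate reader, normalized to vehicle and maximal agonist control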
[7] = system: 6-OHDA lesioned nigrostriatal tract; conditions: cited from earlier work
SOD1G93A mice = conditions: continuous treatment 1 or 5 mg/kg/day; cited from earlier work
[8] = system: GDNF mRNA and protein levels; conditions: 0.25-3 mg/kg, i.p.; cited from earlier work
R6/2 mice = conditions: cited from earlier work
[9] = system: nigrostriatal damage induced by 1-methyl-4-phenyl-1,2,3,6-tetrahydropyridine; conditions: acute or repeated injections 0.25 or 3 mg/kg, i.p., mice; cited from earlier work
reserpine-treated rat = conditions: cited from earlier work
[10] = system: cultured spinal cord astrocytes; conditions: wild-type and mGlu2 knockout mice, not mGlu3 knockout; cited from earlier work
spinal cord GDNF levels = conditions: 0.5, 1 or 5 mg/kg i.p., wild-type and mGlu2 knockout mice; cited from earlier work
SMI-32+ motor neurons = conditions: mixed cultures of spinal cord cells; cited from earlier work

SMILES: Cc1c(OCc2cccc(-c3ccc(C(=O)O)cc3)c2)cc2c(c1C)C(=O)C(C1CCCC1)C2 (stereo not drawn) [BINA]
cocaine-maintained responding [1]: decreased only cocaine-maintained responding
food-maintained responding [2]: no effect on food-maintained responding
activity in TREx293 mGlu3 Gα15 calcium assay (mGlu3 [3]): inactive

SMILES: Cc1c(OCCCCOc2ccc(C(=O)O)cc2)ccc(C(=O)CC(C)C)c1O [Compound 20, 4-(4-(3-Hydroxy-2-methyl-4-(3-methylbutanoyl)phenoxy)butoxy)benzoic acid]
General activity at mGlu6 (mGlu6): inactive^b
General activity at mGlu7 (mGlu7): inactive^b
AUC(0→t) [4]: 544.8 ± 75.4 (μmol/L) min
F, oral bioavailability [4]: 23.5%
Plasma [4]: 5.29 ± 1.98 µM
Kp [4]: 0.2 ± 0.03
Tmax [4]: 2.25 h
Cmax [4]: 2.57 ± 0.45 µM
General activity at mGlu3 (mGlu3 [5]): PAM
General activity at mGlu1 (mGlu1): inactive^b
AUC(0→t) [6]: 231.7 ± 42.12 (μmol/L)*min
Cmax [6]: 5 ± 0.6 µM
Vd [6]: 0.81 ± 0.14 L/kg
General activity at mGlu8 (mGlu8): inactive^b
General activity at mGlu4 (mGlu4): inactive^b
General activity at mGlu5 (mGlu5): inactive^b

SMILES: Cc1c(OCCCCOc2cccc(C(=O)O)c2)ccc(C(=O)CC2CCCC2)c1O [Compound 25, 3-(4-(4-(2-Cyclopentylacetyl)-3-hydroxy-2-methylphenoxy)butoxy)benzoic acid]
General activity at mGlu6 (mGlu6): inactive^b
General activity at mGlu7 (mGlu7): inactive^b
General activity at mGlu3 (mGlu3 [5]): PAM
Emin, minimal response of the concentration-response of agonist (mGlu3 [5]; mGlu3, 10 μM compound): Emin = 6%
General activity at mGlu2 (mGlu2): Ago-PAM
Emin, minimal response of the concentration-response of agonist (mGlu2; mGlu2, 10 μM compound): Emin = 45%
General activity at mGlu1 (mGlu1): inactive^b
General activity at mGlu8 (mGlu8): inactive^b
General activity at mGlu4 (mGlu4): inactive^b
General activity at mGlu5 (mGlu5): inactive^b

SMILES: Cc1c(OCCCCOc2ccc(C(=O)O)c(Cl)c2)ccc(C(=O)CC2CCCC2)c1O [Compound 33, 2-Chloro-4-(4-(4-(2-cyclopentylacetyl)-3-hydroxy-2-methylphenoxy)butoxy)benzoic acid]
General activity at mGlu6 (mGlu6): inactive^b
General activity at mGlu7 (mGlu7): inactive^b
General activity at mGlu2 (mGlu2): Ago-PAM
General activity at mGlu1 (mGlu1): inactive^b
General activity at mGlu8 (mGlu8): inactive^b
General activity at mGlu4 (mGlu4): inactive^b
General activity at mGlu5 (mGlu5): inactive^b

SMILES: Cc1c(OCCCCOc2ccc(F)c(C(=O)O)c2)ccc(C(=O)CC(C)C)c1O [Compound 36, 2-Fluoro-5-(4-(3-hydroxy-2-methyl-4-(3-methylbutanoyl)phenoxy)butoxy)benzoic acid]
AUC(0→t) [4]: 720.5 ± 283.4 (μmol/L) min
F, oral bioavailability [4]: 58.2%
Plasma [4]: 4.23 ± 1.19 µM
Kp [4]: 0.06 ± 0.03
Tmax [4]: 0.5 h
Cmax [4]: 12.5 µM
AUC(0→t) [6]: 123.7 ± 7.7 (μmol/L)*min
Cmax [6]: 3.52 ± 0.13 µM
Vd [6]: 0.89 ± 0.03 L/kg

SMILES: COc1ccc(C(=O)O)cc1OCCCCOc1ccc(C(=O)CC(C)C)c(O)c1C [Compound 50, 3-{4-[3-Hydroxy-2-methyl-4-(3-methylbutanoyl)phenoxy]butoxy}-4-methoxybenzoic acid]
AUC(0→t) [4]: 466.2 ± 105.2 (μmol/L) min
F, oral bioavailability [4]: 60.4%
Tmax [4]: 1.6 h
Cmax [4]: 1.05 µM
AUC(0→t) [6]: 77.2 ± 8.0 (μmol/L)*min
Cmax [6]: 2.15 ± 0.14 µM
Vd [6]: 2.87 ± 0.6 L/kg

SMILES: N[C@@]1(C(=O)O)CO[C@H]2[C@H](C(=O)O)[C@H]21 [LY379268]
protection against nigral infusion of 6-OHDA ([7]; 10 mg/kg/day ip for 7 days): provided some protection against nigral infusion of 6-OHDA
protection against striatal infusion of 6-OHDA ([7]; 10 mg/kg/day ip for 21 days): significant protection in the striatum
rotational behaviour 1 month after unilateral 6-OHDA lesioning ([7]; systemic 0.1, 1, 10 mg/kg ip): failed to effect rotational behaviour
neurological disability in SOD1G93A mice (SOD1G93A mice): beneficial effect on neurological disability
GDNF mRNA and protein levels in the mouse brain [8]: increased
cocaine-maintained responding [1]: decrease both cocaine- and food-maintained responding
striatal neuron loss (R6/2 mice; R6/2 mice, 20 mg/kg s.c. daily, at 10 weeks): rescue of a 15-20% striatal neuron loss
phenotype in R6/2 mice (R6/2 mice; daily s.c. MTD 20 mg/kg beginning at 4 weeks): dramatically improves the phenotype
food-maintained responding [2]: decrease both cocaine- and food-maintained responding
protection against MPTP-induced nigrostriatal damage [9]: highly protective against nigrostriatal damage
locomotor activity in reserpine-treated rat (reserpine-treated rat; intracerebroventricular 1, 5, 10, 20 nmol/2 μl): dose-dependent increase in locomotor activity
reserpine-induced akinesia (reserpine-treated rat; systemic 0.1, 1, 10 mg/kg ip): did not reverse reserpine-induced akinesia
GDNF levels in cultured spinal cord astrocytes [10]: enhanced GDNF levels
spinal cord GDNF levels (spinal cord GDNF levels): enhanced spinal cord GDNF levels
protection of SMI-32+ motor neurons against excitotoxic death (SMI-32+ motor neurons): protected

SMILES: CCCC(=O)c1ccc(OCCCCOc2ccc(C(=O)O)cc2OC)c(C)c1O [compound 67]
General activity at mGlu6 (mGlu6): inactive^b
General activity at mGlu7 (mGlu7): inactive^b
General activity at mGlu1 (mGlu1): Antagonist
General activity at mGlu8 (mGlu8): inactive^b
General activity at mGlu4 (mGlu4): Antagonist
General activity at mGlu5 (mGlu5): inactive^b

Emax (mGlu3 [5]): 103 ± 1.9%
Emax (mGlu2): 101 ± 2.8%
SMILES: Cc1c(OCc2cccc(-c3cccc(S(=O)(=O)O)c3)c2)ccc(C(=O)CC(C)(C)C)c1O [compound 164, 3′-((4-(3,3-Dimethylbutanoyl)-3-hydroxy-2-methylphenoxy)methyl)-[1,1′-biphenyl]-3-sulfonic acid]

SMILES: Cc1c(OCc2nnc(-c3cccc(C(=O)O)c3)s2)ccc(C(=O)CC(C)(C)C)c1O [compound 165, 3-(5-((4-(3,3-Dimethylbutanoyl)-3-hydroxy-2-methylphenoxy)methyl)-1,3,4-thiadiazol-2-yl)benzoic acid]
EC50 (mGlu3 [5]): 1410 ± 34 nM
Emax (mGlu3 [5]): 95 ± 2.5%
EC50 (mGlu2): 1658 ± 8 nM
Emax (mGlu2): 85.6 ± 1.3%

SMILES: Cc1c(OCc2cccc(-c3ccc(Cl)c(C(=O)O)c3)c2)ccc(C(=O)CC(C)C)c1O [compound 169]
mGlu3 PAM Max (mGlu3 [5]): 76.1 ± 5.1%
EC50 (mGlu3 [5]): 2990 ± 359 nM
mGlu2 PAM Max (mGlu2): 77.6 ± 1.8%
EC50 (mGlu2): 278 ± 49 nM

SMILES: Cc1c(OCc2cccc(-c3ccc(Cl)c(C(=O)O)c3)c2)ccc(C(=O)CC(C)C)c1C [compound 170]
EC50 (mGlu3 [5]): > 30000 nM
mGlu2 PAM Max (mGlu2): 70.2 ± 2.9%
EC50 (mGlu2): 815 ± 50 nM

SMILES: Cc1c(OCc2cccc(-c3ccc(Cl)c(C(=O)O)c3)c2)ccc(C(=O)CC2CCCC2)c1C [compound 171]
mGlu3 PAM Max (mGlu3 [5]): 10.7 ± 1.0%
EC50 (mGlu3 [5]): > 30000 nM
mGlu2 PAM Max (mGlu2): 12.3 ± 1.2%
EC50 (mGlu2): > 30000 nM

SMILES: Cc1c(OCc2cccc(-c3ccc(Cl)c(C(=O)O)c3)c2)ccc(C(=O)CC(C)C)c1O [compound 172]
EC50 (mGlu3 [5]): > 10000 nM
mGlu2 PAM Max (mGlu2): 73.7 ± 1.2%
EC50 (mGlu2): 763 ± 40 nM
